From patent publication US20230314435A1, “MARKER OF CALCIUM-OVERLOAD-MEDIATED NEURONAL DEATH AND APPLICATION THEREOF” (Capital Medical University, priority 2022, published 2023)

Key:
Hela cells = test: Western blot of autophagy markers (autophagy flux) in Hela wild-type and TLK2 KO cells; assay type: cell-based; details: 6 hours
Experimental: Hela cells were collected, and were added in an RIPA lysis buffer added with a protease inhibitor and PMSF (50 mM Tris, 150 mM NaCl, 1% Triton X-100, 1% sodium deoxytholate and 0.1% SDS) for lysis on ice for 30 min. Subsequently, ultrasonication was performed on ice under the conditions of 40 w 3 sec on/3 sec off for 1 minute, centrifugation was performed at 12,000 rpm in a centrifugal machine at 4° C. for 15 min, a supernatant was collected, diluted by an SDS sample-loading buffer and stewed at 95° C. for 5 min. […] of a protein sample was loaded, and gel electrophoresis was performed under a constant voltage of 80 V When bromophenol blue reached the bottom, membrane transfer was performed overnight at a constant current of 130 mA to transfer the protein from a gel onto a PVDF membrane. The membrane was blocked with 5% skim milk at room temperature for 1 hour, and was washed with TBST for three times, with 5 min for each time. A primary antibody properly diluted was incubated overnight at 4° C., and washed with TBST for three times, with 5 min for each time. An HRP secondary antibody was diluted in 1:10000, incubated at room temperature for 1 hour, and washed with TBST for three times, with 5 min for each time. Western blot was developed by ECL chemiluminescence.
In TLK2 KO cells, the LC3-II/LC3-I ratio was increased, and a P62 protein level was reduced (FIG. 14). […] The autophagy is a dynamic process, for which a level may be elevated accurately through a process of testing an autophagy flux. By using a drug to activate or block an autophagy pathway, the autophagy flux smoothness could be evaluated.
Raparnycin (Rapa) was used for activating the autophagy, and bafilomycin A1 (Baf A1) was used for inhibiting the autophagy. Cells were treated with Raparnycin (Rapa, 40 nM) and bafilomycin A1 (Baf A1, 100 nM) for 6 hours, respectively. […] This indicated smooth autophagy flux in the TLK2 KO cells.

[1] = tested on: cell calcium-overload model; test: Drug screening in a cell calcium-overload model (LDH assay); assay type: cell-based; details: screening of micro-molecule library, PMZ as positive control
Text: The culture solution was removed, and the cells were washed with PBS. A fresh culture solution was used (it was recommended to use a low serum culture solution containing 1% serum or a suitable serum-free culture solution), and various culture wells were divided into the following groups: cell-free culture solution wells (background blank control wells), control cell wells not treated with a drug (sample control wells), cell wells used for subsequent lysis, not treated with a drug (maximum sample enzyme activity control wells), and drug-treated cell wells (drug-treated sample wells), and these wells were labeled properly.
Proper drug treatment was provided according to experiment requirements, for example, about 0-10 μL of a specific drug was added for stimulation; different concentrations and different treatment time could be set, and suitable drug solvent was required to be added to the control wells for continued culture as routine against the control. At 1 hour before a predetermined testing time point, the cell culture plate was taken out of a cell incubator, an LDH release reagent provided by a reagent kit was added to the “maximum sample enzyme activity control wells”, and the addition amount was equal to 10% of the volume of the original culture solution. After the addition of the LDH release reagent, the cells were blown repeatedly for several times for uniform mixing, and then were incubated in the cell incubator.
After the predetermined time expired, the cell culture plate was centrifuged with a multi-well plate centrifugal machine at 400 g for 5 min. 120 μL of a supernatant was respectively taken from each well and added to corresponding wells of a new 96-well plate for subsequent sample testing. 60 μL of an LDH test working solution was respectively added to each well. […] Then, absorbance was measured at 490 nm. […] Calculation was performed (the background blank control well absorbance was deducted from the measured absorbance of each group). […]

TLK2 [2] = test: Purified GST-TLK2 incubated with lysis buffer of ionomycin-treated (calcium-overload) Hela cells: Commassie staining, phos-tag SDS-PAGE, mass spectrometry; assay type: biochemical
Experimental: TLK2 cDNA was cloned to a PGEX-6P-1 vector containing a GST tag, a recombinant plasmid was expressed into BL21 chemical competent cells for induced expression at 180 rpm at 20° C. for 20 hours under an induction condition of 0.5 mM IPTG. GST-TLK2 was purified according to the standard steps of Beyotime GST tag protein purification kit. Hela cells were treated with 17 μM ionomycin for 3 hours, and when a cell density reached 70%, the cells were collected. Lysis was performed in a lysis buffer (10 mM Tris, 150 mM NaCl, 2 mM EDTA and 0.5% TritonX-100). Centrifugation was performed at 12,000 rmp at 4° C. for 15 min, and a supernatant was collected. 3 μg of a GST-TLK2 purified protein and 200 μg of a cell lysis buffer were mixed, and placed overnight in a vertical shaker at 4° C. Subsequently, Glutathione. Sepharose 4B condensate beads were added, and rotation proceeded at room temperature for 1 hour. The mixture was washed with WB and IP lysis buffers for 6 times, each of which the mixture was centrifugated in a centrifugal machine at 2,000 rmp at 4° C. for 5 min. The product was diluted by an SDS sample-loading buffer and stewed at 95° C. for 5 min, or a TLK2 protein was cleaved overnight by PreScission Protease at 4° C. The final result was obtained by Commassie staining.
The purified TLK2 protein was incubated with a cell lysis buffer (inducing calcium overload) treated with ionomycin or a normal cell lysis buffer. […] Similar change also appeared after the TLK2 protein was incubated with a TLK2 KO cell lysis buffer treated with the ionomycin.
TLK2 cDNA was cloned to a PGEX-6P-1 vector containing a GST tag, a recombinant plasmid was expressed into BL21 chemical competent cells for induced expression at 180 rpm at 20° C. for 20 hours under an induction condition of 0.5 mM IPTG. GST-TLK2 was purified according to the standard steps of Beyotime GST tag protein purification kit. […]
Phos-tag was a functional molecule which could be in specific binding with phosphate ions. […] The content of the phosphorylated protein could be analyzed by the change in the migration rate. […]

TLK2 [3] = test: In-vitro kinase experiment (ATP consumption, MBP substrate); assay type: biochemical; details: TLK2+Ionomycin group compared with normal treatment group
Experimental: 1 μL of ATP (0.2 mM), 1 μg of a TLK2 purified protein and 20 μg of a substrate were added to a 50 μL reaction system, the remaining volume was supplemented with a kinase buffer (10 mM Tris pH 7.5, 50 mM KCL, 10 mM MgCl2 and 1 mM DTT), and a reaction was performed at room temperature for 15 min. An MBP protein was taken as a positive control substrate, and a PGK1 protein was taken as a negative control substrate. 50 ul of a Kinase-Lumi™ superstrong chemiluminescence kinase assay reagent was added and uniformly mixed to have a reaction in the dark at room temperature for 10 min. Then, a multifunctional microplate reader was used for chemiluminescence testing.
TLK2 kinase activity was verified by an in-vitro kinase experiment. In the in-vitro kinase experiment, a myelin basic protein (MBP) could be used as a substrate for multiple kinases, a group to which a TLK2 (No TLK2) protein was not added was taken as a control, and in a normal treatment (TLK2+Control) and an ionomycin treatment group (TLK2+Ionomycin), the same amount of the TLK2 protein reacted with the same amount of the MBP protein. A reduced ATP level reflected the TLK2 kinase activity.

[4] = wild-type Hela cells, Rapa 40 nM or Baf A1 100 nM
[5] = lysis buffer of Hela cells treated with 17 μM ionomycin for 3 hours

SMILES	LC3-II/LC3-I ratio (Hela cells; [4])	P62 protein level (Hela cells; [4])	calcium-overload injury inhibition activity [1]	other results
CO[C@H]1C[C@@H]2CC[C@@H](C)[C@@](O)(O2)C(=O)C(=O)N2CCCC[C@H]2C(=O)O[C@H]([C@H](C)C[C@@H]2CC[C@@H](O)[C@H](OC)C2)CC(=O)[C@H](C)/C=C(\C)[C@@H](O)[C@@H](OC)C(=O)[C@H](C)C[C@H](C)/C=C/C=C/C=C/1C [Rapa, Raparnycin]	increased	reduced		P62 protein level (Hela cells; TLK2 KO Hela cells, Rapa 40 nM): further reduce
O=C(O[C@@H]1Cc2c(O)cc(O)cc2O[C@@H]1c1cc(O)c(O)c(O)c1)c1cc(O)c(O)c(O)c1 [Epigallocatechin Gallate]			had calcium-overload injury inhibition activity	
CO/C1=C\C(C)=C\[C@@H](C)[C@@H](O)[C@@H](C)C/C(C)=C/C=C/[C@H](OC)[C@@H]([C@@H](C)[C@@H](O)[C@H](C)[C@@]2(O)C[C@@H](O)[C@H](C)[C@@H](C(C)C)O2)OC1=O [Baf A1, bafilomycin A1]	elevated	elevated		autophagy activated by TLK2 KO (Hela cells; TLK2 KO Hela cells, Baf A1 100 nM): blocked
CC[C@@H]1C(=O)N(C)c2cnc(Nc3ccc(C(=O)N[C@H]4CC[C@H](N5CCN(CC6CC6)CC5)CC4)cc3OC)nc2N1C(C)C [Volasertib]			had calcium-overload injury inhibition activity	
C[C@H](CCC(=O)O)C[C@H](C)C[C@H](C)C(=O)/C=C(\O)[C@H](C)C[C@H](C)C/C=C/[C@@H](C)[C@@H](O)[C@@H](C)[C@@H](O)C[C@@H]1CC[C@@](C)([C@H]2CC[C@@](C)([C@@H](C)O)O2)O1 [ionomycin, Ionomycin]				GST-TLK2 protein band (Commassie staining) (TLK2 [2]; [5]): moved upward; additional TLK2 phosphorylation sites compared with the control group (mass spectrometry) (TLK2 [2]; [5]): 15; TLK2 phosphorylation (phos-tag SDS-PAGE) (TLK2 [2]; normal and TLK2 KO cell lysis buffer after 17 μM ionomycin, 3 hours): could promote TLK2 phosphorylation; TLK2 kinase activity (ATP consumption) (TLK2 [3]): could consume much ATP
O=c1[nH]c(C2CCCN2)nc2c1oc1ccc(Cl)cc12 (stereo not shown) [XL413]			had calcium-overload injury inhibition activity	
